Reference: ChEMBL document CHEMBL4507293 (2021)

Key:
[1] = biological target: Ribosomal protein S6 kinase alpha-5 (Homo sapiens) (UniProt O75582); conditions: Compound concentration 100.0 nM
[2] = biological target: Fibroblast growth factor receptor 4 (Homo sapiens) (UniProt P22455); conditions: Compound concentration 100.0 nM
[3] = test system: Phosphatidylinositol 4,5-bisphosphate 3-kinase catalytic subunit alpha isoform (Homo sapiens), P42336 [M1043I]; conditions: Compound concentration 100.0 nM
[4] = biological target: Calcium/calmodulin-dependent protein kinase type II subunit gamma (Homo sapiens) (UniProt Q13555); conditions: Compound concentration 100.0 nM
[5] = biological target: Mitogen-activated protein kinase kinase kinase 13 (Homo sapiens) (UniProt O43283); conditions: Compound concentration 100.0 nM
[6] = biological target: D(1A) dopamine receptor (Homo sapiens) (UniProt P21728); conditions: Compound concentration 10.0 uM
[7] = biological target: Dual specificity calcium/calmodulin-dependent 3',5'-cyclic nucleotide phosphodiesterase 1A (Homo sapiens, UniProt P54750); assay: Biochemical assay (PDE1A)
[8] = biological target: Serine/threonine-protein kinase PAK 1 (Homo sapiens) (UniProt Q13153); conditions: Compound concentration 100.0 nM
[9] = biological target: Receptor-interacting serine/threonine-protein kinase 4 (Homo sapiens) (UniProt P57078); conditions: Compound concentration 100.0 nM
[10] = biological target: Rho-associated protein kinase 1 (Homo sapiens) (UniProt Q13464); conditions: Compound concentration 100.0 nM
[11] = biological target: Casein kinase I isoform alpha (Homo sapiens) (UniProt P48729); conditions: Compound concentration 100.0 nM
[12] = biological target: Casein kinase I isoform gamma-2 (Homo sapiens) (UniProt P78368); conditions: Compound concentration 100.0 nM
[13] = test system: Epidermal growth factor receptor (Homo sapiens), P00533 [UNDEFINED MUTATION]; conditions: Compound concentration 100.0 nM
[14] = biological target: Serine/threonine-protein kinase ICK (Homo sapiens) (UniProt Q9UPZ9); conditions: Compound concentration 100.0 nM
[15] = biological target: Dual specificity mitogen-activated protein kinase kinase 7 (Homo sapiens) (UniProt O14733); conditions: Compound concentration 100.0 nM
[16] = biological target: Ribosomal protein S6 kinase alpha-1 (Homo sapiens) (UniProt Q15418); conditions: Compound concentration 100.0 nM
[17] = biological target: Aurora kinase A (Homo sapiens) (UniProt O14965); conditions: Compound concentration 100.0 nM
[18] = biological target: Tyrosine-protein kinase Srms (Homo sapiens) (UniProt Q9H3Y6); conditions: Compound concentration 100.0 nM
[19] = biological target: G protein-coupled receptor kinase 4 (Homo sapiens) (UniProt P32298); conditions: Compound concentration 100.0 nM
[20] = test system: Receptor-type tyrosine-protein kinase FLT3 (Homo sapiens), P36888 [D835V]; conditions: Compound concentration 100.0 nM
[21] = biological target: Homeodomain-interacting protein kinase 2 (Homo sapiens) (UniProt Q9H2X6); conditions: Compound concentration 100.0 nM
[22] = biological target: Macrophage-stimulating protein receptor (Homo sapiens) (UniProt Q04912); conditions: Compound concentration 100.0 nM
[23] = test system: Tyrosine-protein kinase ABL1 (Homo sapiens), P00519 [Q252H]; conditions: Compound concentration 100.0 nM
[24] = biological target: Uncharacterized serine/threonine-protein kinase SBK3 (Homo sapiens) (UniProt P0C264); conditions: Compound concentration 100.0 nM
[25] = biological target: Casein kinase I isoform gamma-3 (Homo sapiens) (UniProt Q9Y6M4); conditions: Compound concentration 100.0 nM
[26] = biological target: Ribosomal protein S6 kinase alpha-4 (Homo sapiens) (UniProt O75676); conditions: Compound concentration 100.0 nM
[27] = biological target: 1-phosphatidylinositol 3-phosphate 5-kinase (Homo sapiens) (UniProt Q9Y2I7); conditions: Compound concentration 100.0 nM
[28] = biological target: Serine/threonine-protein kinase SIK1 (Homo sapiens) (UniProt P57059); conditions: Compound concentration 100.0 nM
[29] = biological target: Protein-tyrosine kinase 6 (Homo sapiens) (UniProt Q13882); conditions: Compound concentration 100.0 nM
[30] = biological target: Dual specificity protein kinase CLK3 (Homo sapiens) (UniProt P49761); conditions: Compound concentration 100.0 nM
[31] = biological target: cGMP-dependent protein kinase 1 (Homo sapiens) (UniProt Q13976); conditions: Compound concentration 100.0 nM
[32] = biological target: Beta-3 adrenergic receptor (Homo sapiens) (UniProt P13945); conditions: Compound concentration 10.0 uM
[33] = biological target: Rhodopsin kinase GRK7 (Homo sapiens) (UniProt Q8WTQ7); conditions: Compound concentration 100.0 nM
[34] = biological target: Beta-1 adrenergic receptor (Homo sapiens) (UniProt P08588); conditions: Compound concentration 10.0 uM
[35] = biological target: Serine/threonine-protein kinase N2 (Homo sapiens) (UniProt Q16513); conditions: Compound concentration 100.0 nM
[36] = biological target: Mitogen-activated protein kinase kinase kinase 12 (Homo sapiens) (UniProt Q12852); conditions: Compound concentration 100.0 nM
[37] = biological target: Tyrosine-protein kinase Fer (Homo sapiens) (UniProt P16591); conditions: Compound concentration 100.0 nM
[38] = biological target: Cyclin-dependent kinase 4 (Homo sapiens) (UniProt P11802); conditions: Compound concentration 100.0 nM
[39] = biological target: Serine/threonine-protein kinase Chk2 (Homo sapiens) (UniProt O96017); conditions: Compound concentration 100.0 nM
[40] = biological target: Serine/threonine-protein kinase 33 (Homo sapiens) (UniProt Q9BYT3); conditions: Compound concentration 100.0 nM

Homeodomain-interacting protein kinase 2 (Homo sapiens), sequence (Q9H2X6 whole entry, looked up): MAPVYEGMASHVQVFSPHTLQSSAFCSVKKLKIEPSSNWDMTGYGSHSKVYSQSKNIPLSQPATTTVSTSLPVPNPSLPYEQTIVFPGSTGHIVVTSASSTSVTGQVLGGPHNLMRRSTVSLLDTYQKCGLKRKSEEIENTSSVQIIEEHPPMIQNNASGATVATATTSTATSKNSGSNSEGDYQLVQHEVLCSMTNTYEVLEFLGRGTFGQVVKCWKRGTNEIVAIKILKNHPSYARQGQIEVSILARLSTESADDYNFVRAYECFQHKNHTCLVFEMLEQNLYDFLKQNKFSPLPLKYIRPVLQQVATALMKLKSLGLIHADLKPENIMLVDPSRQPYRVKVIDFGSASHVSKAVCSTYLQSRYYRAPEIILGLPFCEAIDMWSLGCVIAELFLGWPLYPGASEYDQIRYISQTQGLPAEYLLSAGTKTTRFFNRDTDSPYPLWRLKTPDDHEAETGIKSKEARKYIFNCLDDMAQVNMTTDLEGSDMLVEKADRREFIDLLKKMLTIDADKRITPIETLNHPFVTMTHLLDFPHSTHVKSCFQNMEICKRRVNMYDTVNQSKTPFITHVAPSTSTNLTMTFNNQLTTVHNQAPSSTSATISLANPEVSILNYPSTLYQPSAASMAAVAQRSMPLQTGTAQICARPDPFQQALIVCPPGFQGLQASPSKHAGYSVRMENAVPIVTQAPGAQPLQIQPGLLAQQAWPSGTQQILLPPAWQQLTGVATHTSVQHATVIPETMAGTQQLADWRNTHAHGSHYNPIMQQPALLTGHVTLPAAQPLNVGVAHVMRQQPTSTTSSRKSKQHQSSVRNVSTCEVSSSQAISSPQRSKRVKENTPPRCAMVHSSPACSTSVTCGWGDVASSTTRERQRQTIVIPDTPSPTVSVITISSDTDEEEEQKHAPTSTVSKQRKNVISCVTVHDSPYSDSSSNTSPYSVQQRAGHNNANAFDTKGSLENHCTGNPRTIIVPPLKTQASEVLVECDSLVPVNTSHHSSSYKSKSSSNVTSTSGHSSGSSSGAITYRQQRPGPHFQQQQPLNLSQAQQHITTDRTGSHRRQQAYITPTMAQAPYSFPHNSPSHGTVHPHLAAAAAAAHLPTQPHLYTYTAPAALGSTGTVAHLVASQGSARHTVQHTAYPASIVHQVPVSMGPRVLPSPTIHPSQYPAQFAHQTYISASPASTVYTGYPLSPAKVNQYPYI
Phosphatidylinositol 4,5-bisphosphate 3-kinase catalytic subunit alpha isoform (Homo sapiens), P42336 [M1043I], sequence (P42336 whole entry M1043I, canonical isoform): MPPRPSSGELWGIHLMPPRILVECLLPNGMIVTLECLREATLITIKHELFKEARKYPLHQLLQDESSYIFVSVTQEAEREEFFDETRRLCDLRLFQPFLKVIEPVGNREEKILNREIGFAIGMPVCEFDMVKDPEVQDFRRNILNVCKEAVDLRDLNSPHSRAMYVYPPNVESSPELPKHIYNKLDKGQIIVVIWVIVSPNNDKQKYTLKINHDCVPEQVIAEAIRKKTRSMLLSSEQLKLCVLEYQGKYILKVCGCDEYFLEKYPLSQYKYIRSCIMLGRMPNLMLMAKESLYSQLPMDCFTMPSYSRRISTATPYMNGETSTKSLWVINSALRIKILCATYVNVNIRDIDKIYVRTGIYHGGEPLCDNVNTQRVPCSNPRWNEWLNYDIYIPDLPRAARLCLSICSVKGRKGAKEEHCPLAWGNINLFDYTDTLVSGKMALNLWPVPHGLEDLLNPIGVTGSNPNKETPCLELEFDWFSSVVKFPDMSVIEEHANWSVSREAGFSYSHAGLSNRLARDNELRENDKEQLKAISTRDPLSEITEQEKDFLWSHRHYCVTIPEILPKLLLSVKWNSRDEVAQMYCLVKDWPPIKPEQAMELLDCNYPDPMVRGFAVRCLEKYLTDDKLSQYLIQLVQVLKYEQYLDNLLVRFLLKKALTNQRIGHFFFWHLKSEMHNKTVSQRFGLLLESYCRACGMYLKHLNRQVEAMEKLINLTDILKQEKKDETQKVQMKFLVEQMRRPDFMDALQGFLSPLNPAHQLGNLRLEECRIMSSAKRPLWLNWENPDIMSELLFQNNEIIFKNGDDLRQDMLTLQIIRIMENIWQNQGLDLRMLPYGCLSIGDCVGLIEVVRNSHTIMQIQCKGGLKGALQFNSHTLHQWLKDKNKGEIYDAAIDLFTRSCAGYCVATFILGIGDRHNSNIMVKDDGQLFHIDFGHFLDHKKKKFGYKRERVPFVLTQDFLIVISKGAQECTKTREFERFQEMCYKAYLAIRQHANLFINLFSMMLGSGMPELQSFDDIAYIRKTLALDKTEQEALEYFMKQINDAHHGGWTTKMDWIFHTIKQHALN
Dual specificity mitogen-activated protein kinase kinase 7 (Homo sapiens), sequence (O14733 whole entry): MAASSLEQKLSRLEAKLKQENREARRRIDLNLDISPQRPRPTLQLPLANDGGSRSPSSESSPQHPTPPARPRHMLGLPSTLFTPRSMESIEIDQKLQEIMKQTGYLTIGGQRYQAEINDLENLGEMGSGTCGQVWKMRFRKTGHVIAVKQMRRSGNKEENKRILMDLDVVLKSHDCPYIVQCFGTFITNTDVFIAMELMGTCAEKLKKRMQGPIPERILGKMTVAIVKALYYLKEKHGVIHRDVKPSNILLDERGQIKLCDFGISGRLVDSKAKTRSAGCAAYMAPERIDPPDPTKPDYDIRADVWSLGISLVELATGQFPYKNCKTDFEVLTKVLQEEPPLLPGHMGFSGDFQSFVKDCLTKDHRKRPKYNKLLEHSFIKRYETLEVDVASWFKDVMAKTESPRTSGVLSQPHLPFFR
Ribosomal protein S6 kinase alpha-1 (Homo sapiens), sequence (Q15418 whole entry): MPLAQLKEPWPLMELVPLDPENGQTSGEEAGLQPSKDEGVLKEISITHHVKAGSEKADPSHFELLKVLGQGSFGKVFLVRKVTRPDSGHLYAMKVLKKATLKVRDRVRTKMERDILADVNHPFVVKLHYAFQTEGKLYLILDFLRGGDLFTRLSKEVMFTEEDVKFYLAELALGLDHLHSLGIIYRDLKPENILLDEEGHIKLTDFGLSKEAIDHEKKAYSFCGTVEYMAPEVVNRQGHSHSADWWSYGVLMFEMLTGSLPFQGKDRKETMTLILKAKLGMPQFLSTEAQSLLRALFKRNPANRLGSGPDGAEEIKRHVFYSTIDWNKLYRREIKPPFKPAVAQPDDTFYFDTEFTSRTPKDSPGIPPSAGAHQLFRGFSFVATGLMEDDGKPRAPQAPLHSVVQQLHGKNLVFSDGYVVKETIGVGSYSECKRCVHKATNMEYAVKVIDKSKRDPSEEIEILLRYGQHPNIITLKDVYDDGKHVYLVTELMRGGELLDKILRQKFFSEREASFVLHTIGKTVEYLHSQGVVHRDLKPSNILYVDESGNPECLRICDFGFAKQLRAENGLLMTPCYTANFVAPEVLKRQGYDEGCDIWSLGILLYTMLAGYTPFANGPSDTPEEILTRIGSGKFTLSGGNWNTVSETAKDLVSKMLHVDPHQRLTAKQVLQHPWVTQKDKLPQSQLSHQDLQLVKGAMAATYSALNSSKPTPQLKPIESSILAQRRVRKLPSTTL
Macrophage-stimulating protein receptor (Homo sapiens), sequence (Q04912 25-304 limits assumed): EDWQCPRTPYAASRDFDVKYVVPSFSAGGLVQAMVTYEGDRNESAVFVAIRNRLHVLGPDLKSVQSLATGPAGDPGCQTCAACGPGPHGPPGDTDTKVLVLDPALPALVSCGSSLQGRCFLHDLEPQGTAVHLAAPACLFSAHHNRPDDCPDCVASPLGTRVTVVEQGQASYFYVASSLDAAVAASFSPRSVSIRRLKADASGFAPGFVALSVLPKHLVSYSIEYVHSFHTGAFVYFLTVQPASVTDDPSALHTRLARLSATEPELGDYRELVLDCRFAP
Macrophage-stimulating protein receptor (Homo sapiens), sequence (Q04912 310-1400 limits assumed): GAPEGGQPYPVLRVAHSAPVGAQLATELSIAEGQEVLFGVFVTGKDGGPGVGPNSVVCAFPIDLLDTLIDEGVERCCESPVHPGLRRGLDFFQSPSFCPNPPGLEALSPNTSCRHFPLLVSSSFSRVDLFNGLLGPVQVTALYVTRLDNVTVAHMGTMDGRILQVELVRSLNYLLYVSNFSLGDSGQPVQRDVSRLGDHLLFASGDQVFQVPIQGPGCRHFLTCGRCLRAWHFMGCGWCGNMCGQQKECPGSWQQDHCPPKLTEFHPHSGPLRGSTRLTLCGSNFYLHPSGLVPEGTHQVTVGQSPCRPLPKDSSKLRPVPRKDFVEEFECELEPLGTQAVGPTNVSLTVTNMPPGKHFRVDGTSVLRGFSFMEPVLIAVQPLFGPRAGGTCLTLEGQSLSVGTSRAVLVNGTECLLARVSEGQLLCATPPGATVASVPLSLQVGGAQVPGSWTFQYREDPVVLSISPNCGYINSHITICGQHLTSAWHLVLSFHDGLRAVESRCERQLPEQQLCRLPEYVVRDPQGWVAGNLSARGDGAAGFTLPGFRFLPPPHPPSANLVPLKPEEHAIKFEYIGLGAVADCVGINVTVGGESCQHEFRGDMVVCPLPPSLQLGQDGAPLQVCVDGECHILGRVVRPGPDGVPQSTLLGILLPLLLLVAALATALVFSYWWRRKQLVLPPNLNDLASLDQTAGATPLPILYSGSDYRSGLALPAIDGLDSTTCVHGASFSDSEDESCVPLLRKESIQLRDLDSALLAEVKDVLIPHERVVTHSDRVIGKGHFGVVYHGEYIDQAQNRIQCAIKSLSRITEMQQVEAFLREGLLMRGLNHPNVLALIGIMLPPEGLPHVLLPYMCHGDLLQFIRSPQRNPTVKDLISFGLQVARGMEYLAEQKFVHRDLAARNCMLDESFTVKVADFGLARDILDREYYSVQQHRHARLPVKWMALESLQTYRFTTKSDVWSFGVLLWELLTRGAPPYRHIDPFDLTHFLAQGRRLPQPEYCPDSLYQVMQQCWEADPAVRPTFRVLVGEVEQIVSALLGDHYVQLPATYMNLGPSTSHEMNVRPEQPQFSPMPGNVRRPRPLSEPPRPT

SMILES | residual activity [1] [%] | residual activity [2] [%] | residual activity [3] [%] | residual activity [4] [%] | residual activity [5] [%] | inhibition [6] [%] | Ki [7] | residual activity [8] [%] | residual activity [9] [%] | residual activity [10] [%] | residual activity [11] [%] | residual activity [12] [%] | residual activity [13] [%] | residual activity [14] [%] | residual activity [15] [%] | residual activity [16] [%] | residual activity [17] [%] | residual activity [18] [%] | residual activity [19] [%] | residual activity [20] [%] | further results
CC(C)CC(=O)N1CCc2nc(-c3ccc(Br)cc3)nc(N(C)Cc3ccccc3)c2C1 [THPP-1-NC] | 96 | 98 | 53 | 100 | 66 | 18.5 | > 58.3 µM (not active) | 100 | 100 | 78 | 73 | 86 | 99 | 100 | 79 | 100 | 72 | 100 | 75 | 95 | residual activity [21]: 100%; residual activity [22]: 100%; residual activity [23]: 53%; residual activity [24]: 100%; residual activity [25]: 100%; residual activity [26]: 100%; residual activity [27]: 91%; residual activity [28]: 91%; residual activity [29]: 100%; residual activity [30]: 100%; residual activity [31]: 74%; inhibition [32]: 12.3%; residual activity [33]: 74%; inhibition [34]: 29.5%; residual activity [35]: 80%; residual activity [36]: 90%; residual activity [37]: 100%; residual activity [38]: 100%; residual activity [39]: 100%; residual activity [40]: 74%
COCCOc1nc(-c2ccc(Cl)nc2)nc2c1CN(C(=O)c1ncn3ccccc13)CC2 [THPP-1] | 100 | 90 | 88 | 100 | 87 | -8.34 | > 50 µM (not active) | 100 | 100 | 93 | 98 | 94 | 100 | 100 | 95 | 100 | 81 | 100 | 73 | 100 | residual activity [21]: 100%; residual activity [22]: 100%; residual activity [23]: 74%; residual activity [24]: 100%; residual activity [25]: 100%; residual activity [26]: 100%; residual activity [27]: 90%; residual activity [28]: 100%; residual activity [29]: 100%; residual activity [30]: 100%; residual activity [31]: 87%; inhibition [32]: 1.51%; residual activity [33]: 91%; inhibition [34]: 16.8%; residual activity [35]: 55%; residual activity [36]: 97%; residual activity [37]: 100%; residual activity [38]: 93%; residual activity [39]: 100%; residual activity [40]: 53%
